The test system of this assay is rhythmic bladder contractions in rats. Nature of the assay: Inhibitory effect against rhythmic bladder contractions in rats. Format: in vivo. The settings on record: anesthetized female SD rats, intravenous, dose 0.1 mg/kg body weight. The procedure, abridged:
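Urethane-anesthetized (1.0 g/kg i.p.) female SD rats; saline infused into bladder to induce rhythmic contractions, intravesical pressure monitored. Compound given i.v. at 1 ml/kg in saline, 10% or 20% aqueous DMSO, or 5% aqueous xylitol. Inhibitory time = period intravesical pressure stayed ≤50% of post-dose level (onset within 10 min); vehicles tested alone.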
Regarding `C=CCN1CC[C@]23c4c5ccc(O)c4O[C@H]2[C@@H](N2Cc4ccccc4C2=O)CC[C@@]3(O)[C@H]1C5` [Compound 87, 2-(17-allyl-4,5α-epoxy-3,14-dihydroxy-morphinan-6α-yl)-2,3-dihydro-isoindol-1-one], the “Mean Inhibitory Time of Rhythmic Bladder Contractions” value (from here on “Mean Inhibitory Time”) is 6.4 min.

As for `CN1CC[C@]23c4c5ccc(O)c4O[C@H]2[C@H](N2CCCc4ccccc42)CC[C@H]3[C@H]1C5` [Compound 1, 4,5α-epoxy-6β-tetrahydroquinolino-17-methyl-morphinan-3-ol], the “Mean Inhibitory Time” value worked out at 11.7 min.

Take `C=CCN1CC[C@]23c4c5ccc(O)c4O[C@H]2[C@H](N2C(=O)c4cc(Cl)c(Cl)cc4C2=O)CC[C@@]3(O)[C@H]1C5` [Compound 59, N-(17-allyl-4,5α-epoxy-3,14-dihydroxymorphinan-6β-yl)-4,5-dichlorophthalimide]: the “Mean Inhibitory Time” value came to 6.1 min.

Values taken from patent publication US7320984B2, “Remedies or preventives for urinary frequency or urinary incontinence and morphinan derivatives having nitrogen-containing heterocyclic group” (Toray Industries, Inc., priority 2002, dated 2008).
